Patent US20130012577A1, “PROCESS TO OBTAIN A STANDARDIZED EXTRACT OF QUERCETIN AND 3-O-METHYLQUERCETIN FROM INFLORESCENCES OF MACELA-DO-CAMPO, A COSMETIC, PHARMACEUTICAL AND VETERINARY COMPOSITION CONTAINING EXTRACT OF MACELA-DO-CAMPO, THE USE OF THIS EXTRACT AND THE METHOD OF APPLICATION OF THE AFORESAID EXTRACT” (priority 2009, published 2013)
In brackets after ≈: the same amount, converted by molar mass.

Assays:
P. acnes = experiment: Bioautography of Propionibacterium acnes (HPTLC separation, inoculum overlay); format: cell-based; settings: incubation 72 hours, revealed with TTC
Experimental: Bioautographic trials were conducted to determine the classes of the compounds present in the extract of inflorescence of Achyrocline satureioides that perform the anti-bacterial activity against Propionibacterium acnes. The bioautography consists of the chromatographic separation of the compounds by HPTLC and the subsequent application of the inoculation to the culture medium over the chromatographic plate.

PDE 5A = PDE 5A (Homo sapiens, UniProt O76074); settings: cited from earlier work
PDE3 = settings: cited from earlier work
PDE4 = settings: cited from earlier work
[1] = system: smooth muscle of guinea pig corpus cavernosum; settings: cited from earlier work
[2] = system: smooth muscle of guinea pig tracheas; settings: guinea pig tracheas precontracted with histamine, carbachol, KCl and forskolin; cited from earlier work
Propionibacterium acnes = experiment: Minimum Inhibitory Concentration (MIC), microplate dilution; format: cell-based; settings: Cutibacterium acnes, anaerobiosis, 35° C., 96 hours, mg/ml of sample
Experimental: Tests were carried out for evaluating the minimum inhibitory concentrations of 3 batches of the dried extract of inflorescences of macela-do-campo produced in accordance with the process of the present invention against Propionibacterium acnes.
The procedure used for this test is the following:
Preparation of inoculum: the microorganism to be used in testing was replicated to a glass flask containing 10 ml of sterilized culture medium broth (TSB); • the flaks were incubated at 35° C.+/−2° C. for 24 hours; • the above procedure was repeated for 2 consecutive days; • 100 microliters of TSB broth were distributed in a microplate with the exception of column 1; • column 1 was inoculated with 200 microliters of the sample to be tested previously prepared and solubilized; • dilutions were carried out by transferring 100 microliters of column 1 to column 2 and 100 microliters of column 2 to column 3 and thus successively until column 10. […] The plate in which Propionibacterium acnes was inoculated was incubated under anaerobosis at 35° C.+/−2° C. for 96 hours; • after the incubation period the reading was carried out, thus observing the turbidity of the wells; • the samples were weighed and diluted in the vehicle ethanol 96° GL/distilled water (1:1) according to the weights and volumes below: […]

[3] = Antioxidant activity by DPPH; format: biochemical
Experimental: Tests were performed for the antioxidant activity by DPPH of the dried extract of macela-do-campo obtained by spray dryer. […] Trolox (a derivative of vitamin E sold by Hoffman LaRoche) was used as a standard of the aforesaid test and has its IC50 of antioxidant activity obtained with 0.005 mg/ml. Therefore, it can be concluded that the dried extract of macela-do-campo has extremely high antioxidant effectiveness, only 4 times less than Trolox.

Row | SMILES | anti-microbial activity in bioautography (inhibition halos) (P. acnes) | IC50 (PDE 5A) [µM] | IC50 (PDE3) [µM] | IC50 (PDE4) [µM] | relaxant activity in smooth muscle of corpus cavernosum [1] | relaxation of smooth muscle of tracheas [2] | MIC (Propionibacterium acnes) [µg/mL] | IC50 of the antioxidant activity [3] [µg/mL]
1 | COc1c(-c2ccc(O)c(O)c2)oc2cc(O)cc(O)c2c1=O [3-O-methylquercetin] | main ingredients responsible for the anti-microbial activity | 86.9 | 1.6 | 28.5 | show the same relaxant activity | capable of provoking the relaxation of the smooth muscle |  | 
2 | O=c1c(O)c(-c2ccc(O)c(O)c2)oc2cc(O)cc(O)c12 [quercetin] | main ingredients responsible for the anti-microbial activity | 1.9 |  |  | show the same relaxant activity |  | 36.4 (≈ 120 µM) | 
3 | Cc1c(C)c2c(c(C)c1O)CCC(C)(C(=O)O)O2 (centres unmarked) [Trolox] |  |  |  |  |  |  |  | 5
